Assay results from patent US5081121A, “4(1H)-quinolone derivatives” (priority 1988, dated 1992).

Assays:
right atrial muscle = test: Test Method 1: enhancing rate of the pulsation of the right atrial muscle extirpated from a guinea pig; type: cell-based; conditions: minus values: pulsation is decreased
Procedure: (§1) The drug according to the present invention was evaluated with reference to the physiological activities by means of a method using an atrial muscle extirpated from a guinea pig.
(§2) Male guinea pigs having a body weight of 300-500 g were made swooned by striking his head and were bleeded to death. The heart was extirpated and the right and left atrial muscles were cut off. The tops of each atrial muscle were fixed with cerrefines. The muscle was suspended into an organ-bath in which a Krebs-Henseleit solution (at 32° C.) was filled, and a 95% O2 -5% CO2 gas was flown through the bath. The left atrial muscle was stimulated electrically at a frequency of 1 Hz to stabilize the contracting force of the left atrial muscle. Then, the compounds according to the present invention represented by the general formulae were added to the organ-bath. As for the right atrial muscle, after the pulsation was stabilized, the compounds according to the present invention were added in the organ-bath in the same manner as described above.
(§3) The compounds according to the present invention represented by the aforementioned general formulae enhanced the left atrial muscle contracting force dependent on their concentrations. The drug concentrations for enhancing the left atrial muscle contracting force to the levels of 20%, 50% and 100%, respectively are listed in Table 2. EC20, EC50 and EC100 indicate the molar concentration for enhancing the left atrial muscle contracting force to the levels of 20%, 50% and 100%, respectively. The enhancing rates of the pulsation of the right atrial muscle are also listed within parentheses. The minus values in parentheses indicate that the pulsation of the right atrial muscle is decreased.
(§4) As a control drug, theophylline ([…].

left atrial muscle = test: Test Method 1: enhancement of contracting force of left atrial muscle extirpated from a guinea pig (electrically stimulated at 1 Hz); type: cell-based; conditions: Cavia porcellus, Krebs-Henseleit solution 32° C.; for EC20: read-out: EC20 (molar concentration for enhancing the left atrial muscle contracting force to the level of 20%); for EC50: read-out: EC50 (molar concentration for enhancing the left atrial muscle contracting force to the level of 50%); for EC100: read-out: EC100 (molar concentration for enhancing the left atrial muscle contracting force to the level of 100%)
Procedure: as §1, §2, §3, §4

| enhancing rate of the pulsation of the right atrial muscle (in parentheses under EC50) (right atrial muscle) [%] | EC50 (left atrial muscle) [µM] | Structure (SMILES) | enhancing rate of the pulsation of the right atrial muscle (in parentheses under EC20) (right atrial muscle) [%] | enhancing rate of the pulsation of the right atrial muscle (in parentheses under EC100) (right atrial muscle) [%] | EC20 (left atrial muscle) [µM] | EC100 (left atrial muscle) [µM] |
| --- | --- | --- | --- | --- | --- | --- |
| 3.6 | 398 | COc1ccc2[nH]ccc(=O)c2c1O [Compound 1, 5-hydroxy-6-methoxy-4(1H)-quinolone] | 1.2 | 6.8 | 199 | 708 |
| 2.2 | 871 | COc1c(O)ccc2[nH]ccc(=O)c12 [Compound 2, 6-hydroxy-5-methoxy-4(1H)-quinolone] | 0.6 | – | 490 | – |
| 2.0 | 977 | COc1ccc2c(=O)cc[nH]c2c1O [Compound 3, 8-hydroxy-7-methoxy-4(1H)-quinolone] | 0.8 | – | 708 | – |
| – | – | COc1ccc2[nH]ccc(=O)c2c1OCc1ccccc1 [Compound 4, 5-benzyloxy-6-methoxy-4(1H)-quinolone] | 0.7 | – | 1000 | – |
| – | – | CCOC(=O)c1c[nH]c2c(OCOC)ccc(OC)c2c1=O [Compound 5, 3-ethoxycarbonyl-5-methoxy-8-methoxymethoxy-4(1H)-quinolone] | 0.2 | – | 741 | – |
| 15.3 | 87.1 | CCN(CC)c1cc(C)c2[nH]ccc(=O)c2c1 [Compound 9, 6-diethylamino-8-methyl-4(1H)-quinolone] | 8.2 | 18.0 | 40.7 | 299 |
| 1.2 | 88.1 | COc1cc2c(=O)ccn(C)c2cc1OC [Compound 13, 6,7-dimethoxy-1-methyl-4(1H)-quinolone] | 0.1 | 4.0 | 12.5 | 447 |
| -4.0 | 30 | COc1ccc(Cn2ccc(=O)c3cc(OC)c(OC)cc32)cc1 [Compound 17, 6,7-dimethoxy-1-(4-methoxybenzyl)-4(1H)-quinolone] | -2.1 | – | 4.47 | – |
| 9.2 | 39.3 | O=C(c1ccccc1)c1cc(Cl)cc2c(=O)cc[nH]c12 [Compound 18, 8-benzoyl-6-chloro-4(1H)-quinolone] | 0.2 | 12.2 | 10 | 115 |
| 5.5 | 63 | COc1cc(OCc2ccccc2)cc2c(=O)cc[nH]c12 [Compound 26, 6-benzyloxy-8-methoxy-4(1H)-quinolone] | 0.1 | 8.7 | 6.38 | 305 |
| 0.3 | 85.1 | COC(=O)c1cn(C)c2cc(OC)c(OC)cc2c1=O [Compound 32, 6,7-dimethoxy-3-methoxycarbonyl-1-methyl-4(1H)-quinolone] | 0.1 | 0.4 | 40.7 | 282 |
| 1.7 | 76.7 | CCOC(=O)c1cn(CC)c2ccc(C)cc2c1=O [Compound 33, 3-ethoxycarbonyl-1-ethyl-6-methyl-4(1H)-quinolone] | 1.5 | -7.1 | 30 | 513 |
| -8.5 | 100 | CCOC(=O)c1cn(CC)c2cc(OCC)c(OC)cc2c1=O [Compound 34, 7-ethoxy-3-ethoxycarbonyl-1-ethyl-6-methoxy-4(1H)-quinolone] | -3.2 | – | 6.46 | – |
| -2.0 | 80 | CCOC(=O)c1c[nH]c2c(OC)cccc2c1=O [Compound 35, 3-ethoxycarbonyl-8-methoxy-4(1H)-quinolone] | -1.2 | -3.7 | 26 | 260 |
| 3.6 | 25.7 | CCOC(=O)c1c[nH]c2c(OC)ccc(C)c2c1=O [Compound 36, 3-ethoxycarbonyl-8-methoxy-5-methyl-4(1H)-quinolone] | 0.0 | 8.9 | 3.54 | 77.6 |
| -2.2 | 7.5 | CCOC(=O)c1c[nH]c2c(OC)ccc(-c3ccccc3)c2c1=O [Compound 37, 3-ethoxycarbonyl-8-methoxy-5-phenyl-4(1H)-quinolone] | -1.3 | -5.0 | 1.58 | 37.2 |
| -12.1 | 67.6 | CCOC(=O)c1cn(CC)c2c(OC)cc([S+](C)[O-])cc2c1=O (centres unmarked) [Compound 39, 3-ethoxycarbonyl-1-ethyl-8-methoxy-6-methylsulfinyl-4(1H)-quinolone] | -7.7 | – | 13.5 | – |
| -16.0 | 36.3 | CCOC(=O)c1cn(CC)c2c(OC)cc(S(C)(=O)=O)cc2c1=O [Compound 40, 3-ethoxycarbonyl-1-ethyl-8-methoxy-6-methylsulfonyl-4(1H)-quinolone] | -4.5 | – | 4.57 | – |
| 3.5 | 162 | COc1ccc(OC)c(/C=C/c2ccc3[nH]ccc(=O)c3c2)c1 [Compound 46, 6-[2-trans-(2,5-dimethoxyphenyl)vinyl]-4(1H)-quinolone] | -1.0 | – | 45.7 | – |
| -1.0 | 62.4 | CCOc1cc2c(=O)ccn(CC)c2cc1OC [Compound 49, 6-ethoxy-1-ethyl-7-methoxy-4(1H)-quinolone] | -2.5 | 10.2 | 16.8 | 229 |
